Experimental data as given in US8871753B2, “Macrocyclic compounds and their use as kinase inhibitors” (Incyte Corporation, priority 2008, dated 2014).
Where a name gives a salt, the structure may show the parent alone.

What was measured:
Format in all cases: biochemical
[1] = target: T1, Recombinant Human Anaplastic Lymphoma Kinase (Homo sapiens, UniProt Q9UM73); assay: ALK HTRF kinase assay; conditions: Table B1; cells without percent sign
T1 construct: purchased Invitrogen, Carlsbad, Calif
Summary of the method: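 IC50 was obtained from a logistic fit of signal versus log inhibitor concentration, using pre- and post-transition baselines and a Hill slope. The signal reported tyrosine phosphorylation of a biotinylated peptide by recombinant human kinase, detected as Eu-to-APC energy transfer.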

[2] = target: T2, human JAK1 (a.a. 837-1142) (Homo sapiens, UniProt P23458); assay: In vitro JAK kinase assay (HTRF, phosphorylation of a biotinylated peptide), JAK1; conditions: Table B1; read-out: JAK1 IC50
T2 construct: human JAK1 (a.a. 837-1142); His tag (N); made in house; host or cells: insect cells (baculovirus)
T2 sequence (P23458 849-1154): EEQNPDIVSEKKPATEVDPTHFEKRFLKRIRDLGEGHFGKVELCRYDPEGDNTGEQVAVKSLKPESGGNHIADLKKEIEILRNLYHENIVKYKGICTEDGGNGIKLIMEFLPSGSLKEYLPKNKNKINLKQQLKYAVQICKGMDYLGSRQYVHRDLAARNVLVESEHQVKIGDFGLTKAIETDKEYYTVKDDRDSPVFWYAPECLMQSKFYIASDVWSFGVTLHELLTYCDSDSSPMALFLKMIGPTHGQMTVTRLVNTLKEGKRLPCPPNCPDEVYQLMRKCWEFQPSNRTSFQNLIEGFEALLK
Summary of the method: (§1)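 Phosphorylation of a biotinylated peptide by the JAK kinase domain, detected by HTRF with Eu-Py20 and SA-APC. ATP was 90 μM for JAK1, 30 μM for JAK2 and 3 μM for JAK3. Reactions ran 1 h at room temperature and were stopped with EDTA, followed by 40 min antibody binding.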

[3] = target: T3, human JAK2 (a.a. 828-1132) (Homo sapiens, UniProt O60674); assay: In vitro JAK kinase assay (HTRF, phosphorylation of a biotinylated peptide), JAK2; conditions: Table B1
T3 construct: JAK2 (a.a. 828-1132); His tag (N); made in house; host or cells: insect cells (baculovirus)
T3 sequence (O60674 828-1132): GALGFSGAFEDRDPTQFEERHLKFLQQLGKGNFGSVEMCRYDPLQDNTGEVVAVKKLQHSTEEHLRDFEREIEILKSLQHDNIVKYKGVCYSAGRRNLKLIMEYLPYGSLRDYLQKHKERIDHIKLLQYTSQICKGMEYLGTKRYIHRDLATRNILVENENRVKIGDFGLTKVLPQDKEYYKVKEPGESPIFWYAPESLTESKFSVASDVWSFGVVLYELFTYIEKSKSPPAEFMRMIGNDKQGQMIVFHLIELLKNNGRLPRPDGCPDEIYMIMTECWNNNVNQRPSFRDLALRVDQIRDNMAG
Summary of the method: as §1

TYK2 = TYK2 (Homo sapiens, UniProt P29597); assay: TYK2 kinase inhibition (Table A1); conditions: Table B1
Sequence of TYK2 (P29597 whole entry): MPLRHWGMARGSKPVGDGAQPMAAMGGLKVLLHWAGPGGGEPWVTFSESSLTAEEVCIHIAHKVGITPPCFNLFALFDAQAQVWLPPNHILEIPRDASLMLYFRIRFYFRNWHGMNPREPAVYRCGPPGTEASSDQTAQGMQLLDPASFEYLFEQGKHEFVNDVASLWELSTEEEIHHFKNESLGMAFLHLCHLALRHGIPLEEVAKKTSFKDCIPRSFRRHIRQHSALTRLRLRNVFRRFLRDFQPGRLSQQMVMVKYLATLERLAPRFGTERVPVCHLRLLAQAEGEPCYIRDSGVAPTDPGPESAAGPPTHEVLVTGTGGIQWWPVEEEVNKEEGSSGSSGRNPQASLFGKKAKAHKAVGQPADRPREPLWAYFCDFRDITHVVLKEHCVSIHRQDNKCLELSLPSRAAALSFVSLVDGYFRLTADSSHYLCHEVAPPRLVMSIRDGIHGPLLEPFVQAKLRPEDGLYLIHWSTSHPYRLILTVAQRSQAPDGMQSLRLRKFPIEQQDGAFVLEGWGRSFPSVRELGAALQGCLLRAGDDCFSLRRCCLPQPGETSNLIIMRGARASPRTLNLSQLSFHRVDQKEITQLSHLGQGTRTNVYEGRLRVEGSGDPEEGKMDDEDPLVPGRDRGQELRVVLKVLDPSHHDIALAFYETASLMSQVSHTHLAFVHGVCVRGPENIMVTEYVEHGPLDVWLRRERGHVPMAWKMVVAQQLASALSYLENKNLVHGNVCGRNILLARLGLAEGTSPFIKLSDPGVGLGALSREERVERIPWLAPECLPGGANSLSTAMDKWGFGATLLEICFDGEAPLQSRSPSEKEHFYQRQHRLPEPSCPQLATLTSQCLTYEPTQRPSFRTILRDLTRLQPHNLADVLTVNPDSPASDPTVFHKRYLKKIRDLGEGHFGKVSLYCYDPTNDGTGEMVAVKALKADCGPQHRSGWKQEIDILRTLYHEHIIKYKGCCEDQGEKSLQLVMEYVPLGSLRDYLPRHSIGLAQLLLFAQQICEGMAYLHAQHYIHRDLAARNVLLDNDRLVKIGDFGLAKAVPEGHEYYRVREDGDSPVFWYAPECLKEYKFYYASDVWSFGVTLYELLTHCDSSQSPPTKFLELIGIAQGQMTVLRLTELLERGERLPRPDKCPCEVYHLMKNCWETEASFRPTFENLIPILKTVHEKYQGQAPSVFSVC

[4] = target: T4, human JAK3 (a.a. 781-1124) (Homo sapiens, UniProt P52333); assay: In vitro JAK kinase assay (HTRF, phosphorylation of a biotinylated peptide), JAK3; conditions: Table B1
T4 construct: JAK3 (a.a. 781-1124); His tag (N); made in house; host or cells: insect cells (baculovirus)
T4 sequence (P52333 781-1124): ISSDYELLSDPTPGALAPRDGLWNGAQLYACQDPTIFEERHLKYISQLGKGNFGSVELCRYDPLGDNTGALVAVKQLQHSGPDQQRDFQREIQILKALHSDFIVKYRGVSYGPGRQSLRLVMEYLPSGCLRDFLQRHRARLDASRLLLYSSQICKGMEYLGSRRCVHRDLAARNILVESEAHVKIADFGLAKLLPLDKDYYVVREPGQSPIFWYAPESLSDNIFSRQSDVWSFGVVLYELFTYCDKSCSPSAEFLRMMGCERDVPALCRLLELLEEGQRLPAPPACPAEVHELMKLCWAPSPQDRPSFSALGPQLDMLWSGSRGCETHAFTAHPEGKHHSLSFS
Summary of the method: as §1

T1 sequence (Q9UM73 19-1620): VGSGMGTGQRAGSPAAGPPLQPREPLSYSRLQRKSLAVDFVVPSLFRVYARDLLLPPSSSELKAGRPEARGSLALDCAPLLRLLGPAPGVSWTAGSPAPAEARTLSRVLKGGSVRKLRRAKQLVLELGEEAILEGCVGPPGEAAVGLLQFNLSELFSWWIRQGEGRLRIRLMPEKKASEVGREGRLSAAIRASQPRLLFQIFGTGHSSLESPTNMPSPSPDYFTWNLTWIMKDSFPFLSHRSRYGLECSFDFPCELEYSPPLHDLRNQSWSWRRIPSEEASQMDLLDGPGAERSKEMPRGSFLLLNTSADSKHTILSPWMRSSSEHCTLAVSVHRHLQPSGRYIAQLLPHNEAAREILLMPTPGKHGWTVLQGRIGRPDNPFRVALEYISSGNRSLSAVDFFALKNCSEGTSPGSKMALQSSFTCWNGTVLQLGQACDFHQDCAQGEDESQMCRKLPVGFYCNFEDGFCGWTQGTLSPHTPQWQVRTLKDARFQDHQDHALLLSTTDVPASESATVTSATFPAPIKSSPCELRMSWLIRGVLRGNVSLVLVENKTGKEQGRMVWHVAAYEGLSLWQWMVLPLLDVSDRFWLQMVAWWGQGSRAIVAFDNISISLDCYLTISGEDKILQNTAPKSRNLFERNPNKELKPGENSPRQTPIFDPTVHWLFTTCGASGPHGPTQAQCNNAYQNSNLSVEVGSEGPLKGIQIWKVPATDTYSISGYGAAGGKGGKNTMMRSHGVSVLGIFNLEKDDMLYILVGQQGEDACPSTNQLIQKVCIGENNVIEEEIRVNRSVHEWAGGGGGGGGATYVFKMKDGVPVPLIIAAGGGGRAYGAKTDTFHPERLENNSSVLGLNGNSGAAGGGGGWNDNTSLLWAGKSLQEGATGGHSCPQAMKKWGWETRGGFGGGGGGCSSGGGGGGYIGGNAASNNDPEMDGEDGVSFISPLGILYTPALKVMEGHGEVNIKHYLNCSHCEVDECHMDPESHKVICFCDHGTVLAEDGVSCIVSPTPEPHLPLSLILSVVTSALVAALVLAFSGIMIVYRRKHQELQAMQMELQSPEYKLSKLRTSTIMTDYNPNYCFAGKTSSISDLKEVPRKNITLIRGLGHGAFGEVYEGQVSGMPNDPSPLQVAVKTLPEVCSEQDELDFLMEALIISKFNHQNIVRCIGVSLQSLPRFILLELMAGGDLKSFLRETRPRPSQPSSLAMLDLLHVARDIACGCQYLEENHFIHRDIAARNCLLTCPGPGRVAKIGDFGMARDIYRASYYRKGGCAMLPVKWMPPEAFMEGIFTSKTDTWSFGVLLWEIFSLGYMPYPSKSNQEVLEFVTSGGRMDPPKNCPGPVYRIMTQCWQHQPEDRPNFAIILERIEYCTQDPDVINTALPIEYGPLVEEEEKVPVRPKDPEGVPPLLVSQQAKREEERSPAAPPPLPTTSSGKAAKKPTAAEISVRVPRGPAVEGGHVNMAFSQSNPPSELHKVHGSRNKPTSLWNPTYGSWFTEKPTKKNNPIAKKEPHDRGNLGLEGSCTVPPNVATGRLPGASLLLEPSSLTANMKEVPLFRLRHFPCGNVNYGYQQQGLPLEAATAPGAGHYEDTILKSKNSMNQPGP

SMILES | IC50 [1] [nM] | IC50 [2] [nM] | IC50 [3] [nM] | IC50 (TYK2) [nM] | IC50 [4] [nM]
O=S(=O)(Nc1ccc2cc1CCc1cccc(c1)Nc1ncc(Cl)c(n1)N2)c1ccccc1 [Example B136, N-[6-Chloro-2,4,8,22-tetraazatetracyclo[14.3.1.1(3,7).1(9,13)]docosa-1(20), 3(22),4,6,9(21),10,12,16,18-nonaen-12-yl]benzenesulfonamide trifluoroacetate] | 240 | 0.24 | 0.1 | 0.76 | 2.3
O=S(=O)(Nc1ccc2cc1CCc1cccc(c1)Nc1ncc(Cl)c(n1)N2)c1ccccc1Cl [Example B137, 2-Chloro-N-[6-chloro-2,4,8,22-tetraazatetracyclo[14.3.1.1(3,7).1(9,13)]docosa-1(20),3(22),4,6,9(21),10,12,16,18-nonaen-12-yl]benzenesulfonamide trifluoroacetate] | 580 | 0.42 | 0.11 | 0.27 | 6.4
O=S(=O)(Nc1ccc2cc1CCc1cccc(c1)Nc1ncc(Cl)c(n1)N2)c1cccc(Cl)c1 [Example B138, 3-Chloro-N-[6-chloro-2,4,8,22-tetraazatetracyclo[14.3.1.1(3,7).1(9,13)]docosa-1(20),3(22),4,6,9(21),10,12,16,18-nonaen-12-yl]benzenesulfonamide trifluoroacetate] | 100 | 0.25 | 0.1 | 0.35 | 0.33
O=S(=O)(Nc1ccc2cc1CCc1cccc(c1)Nc1ncc(Cl)c(n1)N2)c1ccc(Cl)cc1 [Example B139, 4-Chloro-N-[6-chloro-2,4,8,22-tetraazatetracyclo[14.3.1.1(3,7).1(9,13)]docosa-1(20),3(22),4,6,9(21),10,12,16,18-nonaen-12-yl]benzenesulfonamide trifluoroacetate] | 290 | 0.5 | 0.1 | 0.84 | 5.1
CS(=O)(=O)Nc1ccc2cc1CCc1cccc(c1)Nc1ncc(Cl)c(n1)N2 [Example B140, N-[6-Chloro-2,4,8,22-tetraazatetracyclo[14.3.1.1(3,7).1(9,13)]docosa-1(20), 3(22),4,6,9(21),10,12,16,18-nonaen-12-yl]methanesulfonamide trifluoroacetate] | 150 | 0.51 | 0.2 | 0.89 | 1.3
CCS(=O)(=O)Nc1ccc2cc1CCc1cccc(c1)Nc1ncc(Cl)c(n1)N2 [Example B141, N-[6-Chloro-2,4,8,22-tetraazatetracyclo[14.3.1.1(3,7).1(9,13)]docosa-1(20), 3(22),4,6,9(21),10,12,16,18-nonaen-12-yl]ethanesulfonamide trifluoroacetate] | 740 | 0.8 | 0.2 | 1.2 | 3
CCCS(=O)(=O)Nc1ccc2cc1CCc1cccc(c1)Nc1ncc(Cl)c(n1)N2 [Example B142, N-[6-Chloro-2,4,8,22-tetraazatetracyclo[14.3.1.1(3,7).1(9,13)]docosa-1(20), 3(22),4,6,9(21),10,12,16,18-nonaen-12-yl]propane-1-sulfonamide trifluoroacetate] | 990 | 0.85 | 0.31 | 1.5 | 4.6
CC(C)S(=O)(=O)Nc1ccc2cc1CCc1cccc(c1)Nc1ncc(Cl)c(n1)N2 [Example B143, N-[6-Chloro-2,4,8,22-tetraazatetracyclo[14.3.1.1(3,7).1(9,13)]docosa-1(20), 3(22),4,6,9(21),10,12,16,18-nonaen-12-yl]propane-2-sulfonamide trifluoroacetate] | > 1000 | 11 | 2.8 | 13 | 104
Cn1cnc(S(=O)(=O)Nc2ccc3cc2CCc2cccc(c2)Nc2ncc(Cl)c(n2)N3)c1 [Example B144, N-[6-Chloro-2,4,8,22-tetraazatetracyclo[14.3.1.1(3,7).1(9,13)]docosa-1(20), 3(22),4,6,9(21),10,12,16,18-nonaen-12-yl]-1-methyl-1H-imidazole-4-sulfonamide bis(trifluoroacetate)] | 600 | 0.34 | 0.2 | 0.5 | 4.2
O=S(=O)(Nc1ccc2cc1CCc1cccc(c1)Nc1ncc(Cl)c(n1)N2)c1cccs1 [Example B146, N-[6-Chloro-2,4,8,22-tetraazatetracyclo[14.3.1.1(3,7).1(9,13)]docosa-1(20), 3(22),4,6,9(21),10,12,16,18-nonaen-12-yl]thiophene-2-sulfonamide trifluoroacetate] | 130 | 0.5 | 0.11 | 0.61 | 2.6
O=S(=O)(Cc1ccccc1)Nc1ccc2cc1CCc1cccc(c1)Nc1ncc(Cl)c(n1)N2 [Example B147, N-[6-Chloro-2,4,8,22-tetraazatetracyclo[14.3.1.1(3,7).1(9,13)]docosa-1(20), 3(22),4,6,9(21),10,12,16,18-nonaen-12-yl]-1-phenylmethanesulfonamide trifluoroacetate] | 1800 | 2.5 | 1.5 | 6.6 | 37
Cc1cccc(S(=O)(=O)Nc2ccc3cc2CCc2cccc(c2)Nc2ncc(Cl)c(n2)N3)c1 [Example B148, N-[6-Chloro-2,4,8,22-tetraazatetracyclo[14.3.1.1(3,7).1(9,13)]docosa-1(20), 3(22),4,6,9(21),10,12,16,18-nonaen-12-yl]-3-methylbenzenesulfonamide trifluoroacetate] | 150 | 0.49 | 0.13 | 0.53 | 1.1
Cc1ccc(S(=O)(=O)Nc2ccc3cc2CCc2cccc(c2)Nc2ncc(Cl)c(n2)N3)cc1 [Example B150, N-[6-Chloro-2,4,8,22-tetraazatetracyclo[14.3.1.1(3,7).1(9,13)]docosa-1(20), 3(22),4,6,9(21),10,12,16,18-nonaen-12-yl]-4-methylbenzenesulfonamide trifluoroacetate] | 180 | 0.41 | 0.15 | 0.86 | 6.3
Cc1noc(C)c1S(=O)(=O)Nc1ccc2cc1CCc1cccc(c1)Nc1ncc(Cl)c(n1)N2 [Example B152, N-[6-Chloro-2,4,8,22-tetraazatetracyclo[14.3.1.1(3,7).1(9,13)]docosa-1(20),3(22),4,6,9(21),10,12,16,18-nonaen-12-yl]-3,5-dimethylisoxazole-4-sulfonamide trifluoroacetate] | 430 | 0.35 | 0.14 | 0.5 | 11
N#Cc1cccc(S(=O)(=O)Nc2ccc3cc2CCc2cccc(c2)Nc2ncc(Cl)c(n2)N3)c1 [Example B153, N-[6-Chloro-2,4,8,22-tetraazatetracyclo[14.3.1.1(3,7).1(9,13)]docosa-1(20),3(22),4,6,9(21),10,12,16,18-nonaen-12-yl]-3-cyanobenzenesulfonamide trifluoroacetate] | 70 | 0.69 | 0.1 | 0.44 | 0.48
